Test results taken from patent US20230089582A1, “1,2,4-TRIAZINE-3,5-DIONE COMPOUND, PREPARATION METHOD THEREFOR, AND APPLICATION THEREOF” (KPC PHARMACEUTICALS, INC, priority 2019, published 2023).

Legend:
[1] = in vitro; details: microsomes, pH 7.4
Experimental: The stop solution was an acetonitrile solution containing tolbutamide and propranolol (both internal standards).
Phosphate buffer was 100 mM K3PO4 (pH=7.4) buffer containing 3.3 mM MgCl2.
The liver microsome incubation system was in 100 mM phosphate buffer containing 0.2 mg/mL liver microsomal protein and 1 μM test substance/positive control.
80 μL of the mixture was transferred from the incubation system to 400 μL of stop solution to precipitate proteins, and 20 μL of NADPH regeneration system was added after vortexing as a 0 min sample point.
130 μL of NADPH regeneration system was added to the remaining 520 μL of protein drug mixture and mixed well to start incubation. The final incubation system was 650 μL, containing 0.2 mg/mL liver microsomal protein, 1 μM test substance/positive control, 1.3 mM NADP, 3.3 mM G-6-P and 0.6 U/mL G-6-PDH.

[2] = biological target: T1, THRβ (Homo sapiens, UniProt P10828); experiment: THRβ binding assay (TR-FRET co-activating peptide recruitment); assay type: biochemical; details: THRβ-LBD/RXRα, SRC2-2 co-activating peptide recruitment, agonistic effect
T1 construct: RXRα and GST-tagged THRβ-LBD
T1 sequence (P10828 217-461 limits assumed, other chains not shown): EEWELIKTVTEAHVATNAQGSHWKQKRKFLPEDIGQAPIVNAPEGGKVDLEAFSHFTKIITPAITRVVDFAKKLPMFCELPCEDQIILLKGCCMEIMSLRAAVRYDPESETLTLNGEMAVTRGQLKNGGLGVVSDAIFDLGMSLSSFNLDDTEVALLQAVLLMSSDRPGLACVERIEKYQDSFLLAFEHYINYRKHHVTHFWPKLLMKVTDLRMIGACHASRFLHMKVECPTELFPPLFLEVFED
T1 sequence (P19793 whole entry partner, other chains not shown, the tested form may be a part): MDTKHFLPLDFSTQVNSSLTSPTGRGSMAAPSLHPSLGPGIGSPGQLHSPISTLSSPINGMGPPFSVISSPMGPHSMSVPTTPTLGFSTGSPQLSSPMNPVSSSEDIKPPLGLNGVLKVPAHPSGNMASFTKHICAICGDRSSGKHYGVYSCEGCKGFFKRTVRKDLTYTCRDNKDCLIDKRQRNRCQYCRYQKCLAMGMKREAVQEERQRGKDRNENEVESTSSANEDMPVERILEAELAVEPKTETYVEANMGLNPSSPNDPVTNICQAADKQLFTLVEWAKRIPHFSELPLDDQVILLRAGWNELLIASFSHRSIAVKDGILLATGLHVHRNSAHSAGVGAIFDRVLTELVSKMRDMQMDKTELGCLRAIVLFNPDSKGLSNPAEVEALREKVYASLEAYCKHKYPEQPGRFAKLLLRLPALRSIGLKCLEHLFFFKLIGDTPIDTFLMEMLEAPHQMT
Experimental: Experimental method: In vitro analysis of the agonistic effect of the compounds on THRβ was performed using a time-resolved fluorescence resonance energy transfer co-activating peptide recruitment assay. The assay used Eu-anti-GST antibody, biotin-SRC2-2 co-activating peptide, streptavidin-d2, RXRα and GST-tagged THRβ-LBD. The Eu-anti-GST antibody indirectly labeled THRβ-LBD by binding to GST tag. Streptavidin-d2 indirectly labeled the SRC2-2 co-activating peptide by binding to biotin tag. In the presence of RXRα, THRβ-LBD can form a heterodimer THRβ-LBD/RXRα with it. The agonist bound to THRβ-LBD/RXRα and caused a conformational change of THRβ-LBD, thereby increasing the recruitment capacity of the heterodimer to the SRC2-2 co-activating peptide. Furthermore, the resulting decreased distance between the d2-labeled SRC2-2 co-activating peptide and the Eu-anti-GST antibody increased the […] signal. The agonistic ability of a compound can be assessed based on the effect of different concentrations of the compound on THRβ activity.
The detailed procedure is as follows.
a. 100× reference compound or compound was prepared with DMSO and diluted in 1:3.
e. The plates were centrifuged at 1000 rpm for 1 min and incubated for 4 h at room temperature shielded from light.

[3] = biological target: THRα (Homo sapiens, UniProt P10827); experiment: THRα binding assay (TR-FRET co-activating peptide recruitment); assay type: biochemical; details: THRα instead of THRβ, agonistic effect
THRα, sequence (P10827 163-410 isoform P10827-2 limits assumed, other chains not shown): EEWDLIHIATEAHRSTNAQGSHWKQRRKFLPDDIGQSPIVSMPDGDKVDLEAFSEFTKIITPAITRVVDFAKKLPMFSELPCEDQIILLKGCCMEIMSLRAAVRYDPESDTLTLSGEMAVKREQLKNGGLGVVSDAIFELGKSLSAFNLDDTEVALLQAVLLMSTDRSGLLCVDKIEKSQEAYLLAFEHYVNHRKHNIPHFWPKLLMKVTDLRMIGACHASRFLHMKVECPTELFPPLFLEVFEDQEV
THRα, sequence (P19793 whole entry partner, other chains not shown): as the sequence (P19793 whole entry partner, other chains not shown, the tested form may be a part) above

Row | Structure (SMILES) | EC50 [2] | Emax [2] | EC50 [3] | Emax [3] | also measured
1 | CC(C)c1cc(Oc2c(Cl)cc(-n3nc(C#N)c(=O)[nH]c3=O)cc2Cl)n[nH]c1=O [Control compound 2, MGL-3196, reference compound] |  |  |  |  | half-life at 1 μM ([1]; dog): 120 min; microsomal CLint at 1 μM ([1]; dog): 28.9 µL/min/mg; half-life at 1 μM ([1]; human): 311 min; microsomal CLint at 1 μM ([1]; human): 11.2 µL/min/mg; half-life at 1 μM ([1]; monkey): 298 min; microsomal CLint at 1 μM ([1]; monkey): 11.6 µL/min/mg; half-life at 1 μM ([1]; rat): 766 min; microsomal CLint at 1 μM ([1]; rat): 4.5 µL/min/mg
2 | O=c1[nH]nc(Oc2c(Cl)cc(-n3nc(CF)c(=O)[nH]c3=O)cc2Cl)cc1C1CCCCC1 [Example 9, 2-(3,5-dichloro-4-((5-cyclohexyl-6-oxo-1,6-dihydropyridazin-3-yl)oxy)phenyl)-6-(fluoromethyl)-1,2,4-triazine-3,5(2H,4H)-dione] | 101 nM | 108% | 4260 nM | 123% | 
3 | O=c1[nH]nc(Oc2c(Cl)cc(-n3nc(CF)c(=O)[nH]c3=O)cc2Cl)cc1C1CCCC1 [Example 10, 2-(3,5-dichloro-4-((5-cyclopentyl-6-oxo-1,6-dihydropyridazin-3-yl)oxy)phenyl)-6-(fluoromethyl)-1,2,4-triazine-3,5(2H,4H)-dione] | 94 nM | 110% | 1410 nM | 112% | 
4 | O=c1[nH]nc(Oc2c(Cl)cc(-n3nc(CF)c(=O)[nH]c3=O)cc2Cl)cc1C1CC1 [Example 12, 2-(3,5-dichloro-4-((5-cyclopropyl-6-oxo-1,6-dihydropyridazin-3-yl)oxy)phenyl)-6-(fluoromethyl)-1,2,4-triazine-3,5(2H,4H)-dione] | 71 nM | 105% | 210 nM | 127% | 
5 | CC(C)(F)c1cc(Oc2c(Cl)cc(-n3nc(CF)c(=O)[nH]c3=O)cc2Cl)n[nH]c1=O [Example 16, 3-(3,5-dichloro-4-((5-(2-fluoropropan-2-yl)-6-oxo-1,6-dihydropyridazin-3-yl)oxy)phenyl)-6-(fluoromethyl)-1,2,4-triazine-3,5(2H,4H)-dione] | 164 nM | 111% |  |  | 
6 | CC(C)c1cc(Oc2c(Cl)cc(-n3nc(C4CC4)c(=O)[nH]c3=O)cc2Cl)n[nH]c1=O [Example 19, 6-cyclopropyl-2-(3,5-dichloro-4-((5-isopropyl-6-oxo-1,6-dihydropyridazin-3-yl)oxy)phenyl)-1,2,4-triazine-3,5(2H,4H)-dione] | 7250 nM | 77.7% |  |  | 
7 | CC(C)c1cc(Oc2c(Cl)cc(-n3nc(O)c(=O)[nH]c3=O)cc2Cl)n[nH]c1=O [Example 20, 2-(3,5-dichloro-4-((5-isopropyl-6-oxo-1,6-dihydropyridazin-3-yl)oxy)phenyl)-6-hydroxy-1,2,4-triazine-3,5(2H,4H)-dione] | > 10000 nM |  |  |  | 

Second part, led by results:

Row | EC50 [2] | Emax [2] | EC50 [3] | Emax [3] | Structure (SMILES) | also measured
8 | 5 nM | 92.8% | 190 nM | 107% | CC(C)c1cc(Oc2c(Cl)cc(-n3nc(CF)c(=O)[nH]c3=O)cc2Cl)n[nH]c1=O [Example 2] | half-life at 1 μM ([1]; dog): 264 min; microsomal CLint at 1 μM ([1]; dog): 13.1 µL/min/mg; half-life at 1 μM ([1]; human): 1030 min; microsomal CLint at 1 μM ([1]; human): 3.4 µL/min/mg; half-life at 1 μM ([1]; monkey): 535 min; microsomal CLint at 1 μM ([1]; monkey): 6.5 µL/min/mg; half-life at 1 μM ([1]; mouse): 187 min; microsomal CLint at 1 μM ([1]; mouse): 18.5 µL/min/mg; half-life at 1 μM ([1]; rat): 740 min; microsomal CLint at 1 μM ([1]; rat): 4.7 µL/min/mg
9 | 42 nM | 117% | 230 nM | 124% | O=c1[nH]nc(Oc2c(Cl)cc(-n3nc(CF)c(=O)[nH]c3=O)cc2Cl)cc1C1CCC1 [Example 14, 2-(3,5-dichloro-4-((5-cyclobutyl-6-oxo-1,6-dihydropyridazin-3-yl)oxy)phenyl)-6-(fluoromethyl)-1,2,4-triazine-3,5(2H,4H)-dione] | 
10 | 23.6 nM | 124% |  |  | C=C(C)c1cc(Oc2c(Cl)cc(-n3nc(CF)c(=O)[nH]c3=O)cc2Cl)n[nH]c1=O [Example 18, 2-(3,5-dichloro-4-((6-oxo-5-(prop-1-en-2-yl)-1,6-dihydropyridazin-3-yl)oxy)phenyl)-6-(fluoromethyl)-1,2,4-triazine-3,5(2H,4H)-dione] | 
